In US20230085307A1, “PYRIDAZINONE COMPOUND AND HERBICIDE” (NISSAN CHEMICAL CORPORATION, priority 2019, published 2023):

How the values were obtained:
[1] = system: barnyard grass; assay: Test Example 3: herbicidal effect by foliage application, Wagner pot (Table 18, symbol H); assay type: in vivo, barnyard grass (Echinochloa crus-galli); conditions: 320 g/ha
Outline: (§1)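 Plants were sown in alluvial soil held under 0.1–0.5 cm standing water and grown 14 days in a greenhouse at 25–30 °C. An emulsifiable formulation, water-diluted to the set dose, was then sprayed onto the foliage, and effects were scored three weeks later using previously defined criteria.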

[2] = system: Chinese sprangletop; assay: Test Example 3: herbicidal effect by foliage application, Wagner pot (Table 18, symbol D); assay type: in vivo, chinese sprangletop (Leptochloa chinensis); conditions: 320 g/ha
Outline: as §1

[3] = system: rice flat sedge; assay: Test Example 3: herbicidal effect by foliage application, Wagner pot (Table 18, symbol E); assay type: in vivo, rice flat sedge (Cyperus iria); conditions: 320 g/ha
Outline: as §1

[4] = system: southern crabgrass; assay: Test Example 4: herbicidal effect by soil treatment (Table 19, symbol F); assay type: in vivo, southern crabgrass (Digitaria ciliaris); conditions: amount of applied herbicide 320 g/ha
Outline: (§2)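 Pre-emergence style soil spray: seeds under ~1.5 cm sterilized diluvial soil received a uniform coat of emulsion diluted to the predetermined herbicide amount. Greenhouse 25–30° C; readout at week three on previously defined criteria.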

[5] = system: green foxtail; assay: Test Example 4: herbicidal effect by soil treatment (Table 19, symbol G); assay type: in vivo, green foxtail (Setaria viridis); conditions: amount of applied herbicide 320 g/ha
Outline: as §2

[6] = system: barnyard grass; assay: Test Example 4: herbicidal effect by soil treatment (Table 19, symbol H); assay type: in vivo, barnyard grass (Echinochloa crus-galli); conditions: amount of applied herbicide 320 g/ha
Outline: as §2

[7] = system: wild oat; assay: Test Example 4: herbicidal effect by soil treatment (Table 19, symbol I); assay type: in vivo, wild oat (Avena fatua); conditions: amount of applied herbicide 320 g/ha
Outline: as §2

[8] = system: blackgrass; assay: Test Example 4: herbicidal effect by soil treatment (Table 19, symbol J); assay type: in vivo, blackgrass (Alopecurus myosuroides); conditions: amount of applied herbicide 320 g/ha
Outline: as §2

[9] = system: Italian ryegrass; assay: Test Example 4: herbicidal effect by soil treatment (Table 19, symbol K); assay type: in vivo, Italian ryegrass (Lolium multiflorum); conditions: amount of applied herbicide 320 g/ha
Outline: as §2

[10] = system: windgrass; assay: Test Example 4: herbicidal effect by soil treatment (Table 19, symbol L); assay type: in vivo, windgrass (Apera spica-venti); conditions: amount of applied herbicide 320 g/ha
Outline: as §2

[11] = system: velvetleaf; assay: Test Example 4: herbicidal effect by soil treatment (Table 19, symbol M); assay type: in vivo, velvetleaf (Abutilon theophrasti); conditions: amount of applied herbicide 320 g/ha
Outline: as §2

[12] = system: redroot pigweed; assay: Test Example 4: herbicidal effect by soil treatment (Table 19, symbol N); assay type: in vivo, redroot pigweed (Amaranthus retroflexus); conditions: amount of applied herbicide 320 g/ha
Outline: as §2

[13] = system: lambsquarters; assay: Test Example 4: herbicidal effect by soil treatment (Table 19, symbol O); assay type: in vivo, lambsquarters (Chenopodium album); conditions: amount of applied herbicide 320 g/ha
Outline: as §2

[14] = system: chickweed; assay: Test Example 4: herbicidal effect by soil treatment (Table 19, symbol P); assay type: in vivo, common chickweed (Stellaria media); conditions: amount of applied herbicide 320 g/ha
Outline: as §2

[15] = system: persian speedwell; assay: Test Example 4: herbicidal effect by soil treatment (Table 19, symbol R); assay type: in vivo, Persian speedwell (Veronica persica); conditions: amount of applied herbicide 320 g/ha
Outline: as §2

[16] = system: southern crabgrass; assay: Test Example 5: herbicidal effect by foliage application, plastic box (Table 20, symbol F); assay type: in vivo, southern crabgrass (Digitaria ciliaris); conditions: 320 g/ha
Outline: (§3)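 Plants were sown into sterilized diluvial soil under about 1.5 cm cover and kept in a greenhouse at 25° C. to 30° C. Fourteen days on, foliage received an even spray of the diluted emulsion. Herbicidal or crop effect was judged three weeks afterwards.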

[17] = system: green foxtail; assay: Test Example 5: herbicidal effect by foliage application, plastic box (Table 20, symbol G); assay type: in vivo, green foxtail (Setaria viridis); conditions: 320 g/ha
Outline: as §3

[18] = system: barnyard grass; assay: Test Example 5: herbicidal effect by foliage application, plastic box (Table 20, symbol H); assay type: in vivo, barnyard grass (Echinochloa crus-galli); conditions: 320 g/ha
Outline: as §3

[19] = system: wild oat; assay: Test Example 5: herbicidal effect by foliage application, plastic box (Table 20, symbol I); assay type: in vivo, wild oat (Avena fatua); conditions: 320 g/ha
Outline: as §3

[20] = system: blackgrass; assay: Test Example 5: herbicidal effect by foliage application, plastic box (Table 20, symbol J); assay type: in vivo, blackgrass (Alopecurus myosuroides); conditions: 320 g/ha
Outline: as §3

[21] = system: Italian ryegrass; assay: Test Example 5: herbicidal effect by foliage application, plastic box (Table 20, symbol K); assay type: in vivo, Italian ryegrass (Lolium multiflorum); conditions: 320 g/ha
Outline: as §3

[22] = system: windgrass; assay: Test Example 5: herbicidal effect by foliage application, plastic box (Table 20, symbol L); assay type: in vivo, windgrass (Apera spica-venti); conditions: 320 g/ha
Outline: as §3

[23] = system: velvetleaf; assay: Test Example 5: herbicidal effect by foliage application, plastic box (Table 20, symbol M); assay type: in vivo, velvetleaf (Abutilon theophrasti); conditions: 320 g/ha
Outline: as §3

[24] = system: redroot pigweed; assay: Test Example 5: herbicidal effect by foliage application, plastic box (Table 20, symbol N); assay type: in vivo, redroot pigweed (Amaranthus retroflexus); conditions: 320 g/ha
Outline: as §3

[25] = system: lambsquarters; assay: Test Example 5: herbicidal effect by foliage application, plastic box (Table 20, symbol O); assay type: in vivo, lambsquarters (Chenopodium album); conditions: 320 g/ha
Outline: as §3

[26] = system: chickweed; assay: Test Example 5: herbicidal effect by foliage application, plastic box (Table 20, symbol P); assay type: in vivo, common chickweed (Stellaria media); conditions: 320 g/ha
Outline: as §3

[27] = system: persian speedwell; assay: Test Example 5: herbicidal effect by foliage application, plastic box (Table 20, symbol R); assay type: in vivo, Persian speedwell (Veronica persica); conditions: 320 g/ha
Outline: as §3

[28] = foliage application, three weeks after application
[29] = foliage application after 14-day growth, evaluated three weeks after application

| Structure (SMILES) | herbicidal effect on barnyard grass (H) [1] | herbicidal effect on Chinese sprangletop (D) [2] | herbicidal effect on rice flat sedge (E) [3] | Herbicidal effect by soil treatment, F: southern crabgrass [4] | Herbicidal effect by soil treatment, G: green foxtail [5] | Herbicidal effect by soil treatment, H: barnyard grass [6] | Herbicidal effect by soil treatment, I: wild oat [7] | Herbicidal effect by soil treatment, J: blackgrass [8] | Herbicidal effect by soil treatment, K: Italian ryegrass [9] | Herbicidal effect by soil treatment, L: windgrass [10] | Herbicidal effect by soil treatment, M: velvetleaf [11] | Herbicidal effect by soil treatment, N: redroot pigweed [12] | Herbicidal effect by soil treatment, O: lambsquarters [13] | Herbicidal effect by soil treatment, P: chickweed [14] | Herbicidal effect by soil treatment, R: persian speedwell [15] | other results |
| --- | --- | --- | --- | --- | --- | --- | --- | --- | --- | --- | --- | --- | --- | --- | --- | --- |
| Cc1nn(C)c(=O)c(-c2c(-c3ccc(C(F)(F)F)cc3)sc3cc(F)ccc23)c1O [3-139] | 4 (Herbicidal rate of 70% or more and less than 90%) | 4 (Herbicidal rate of 70% or more and less than 90%) | 4 (Herbicidal rate of 70% or more and less than 90%) | 0 (Herbicidal rate of 5% or less (almost no effect)) | 0 (Herbicidal rate of 5% or less (almost no effect)) | 0 (Herbicidal rate of 5% or less (almost no effect)) | 0 (Herbicidal rate of 5% or less (almost no effect)) | 0 (Herbicidal rate of 5% or less (almost no effect)) | 0 (Herbicidal rate of 5% or less (almost no effect)) | 0 (Herbicidal rate of 5% or less (almost no effect)) | 2 (Herbicidal rate of 20% or more and less than 40%) | 4 (Herbicidal rate of 70% or more and less than 90%) | 3 (Herbicidal rate of 40% or more and less than 70%) | 0 (Herbicidal rate of 5% or less (almost no effect)) | 1 (Herbicidal rate of 5% or more and less than 20%) | F: southern crabgrass, herbicidal effect grade [16, 28]: 2 (Herbicidal rate of 20% or more and less than 40%); G: green foxtail, herbicidal effect grade [17, 28]: 4 (Herbicidal rate of 70% or more and less than 90%); H: barnyard grass, herbicidal effect grade [18, 28]: 5 (Herbicidal rate of 90% or more (almost completely withered)); I: wild oat, herbicidal effect grade [19, 28]: 3 (Herbicidal rate of 40% or more and less than 70%); J: blackgrass, herbicidal effect grade [20, 28]: 0 (Herbicidal rate of 5% or less (almost no effect)); K: Italian ryegrass, herbicidal effect grade [21, 28]: 5 (Herbicidal rate of 90% or more (almost completely withered)); L: windgrass, herbicidal effect grade [22, 28]: 5 (Herbicidal rate of 90% or more (almost completely withered)); M: velvetleaf, herbicidal effect grade [23, 28]: 5 (Herbicidal rate of 90% or more (almost completely withered)); N: redroot pigweed, herbicidal effect grade [24, 28]: 3 (Herbicidal rate of 40% or more and less than 70%); O: lambsquarters, herbicidal effect grade [25, 28]: 5 (Herbicidal rate of 90% or more (almost completely withered)); P: chickweed, herbicidal effect grade [26, 28]: 5 (Herbicidal rate of 90% or more (almost completely withered)); R: persian speedwell, herbicidal effect grade [27, 28]: 5 (Herbicidal rate of 90% or more (almost completely withered)) |
| Cc1nn(C)c(=O)c(-c2c(-c3ccc(OC(F)(F)F)cc3)sc3cc(Cl)ccc23)c1O [3-149] | 4 (Herbicidal rate of 70% or more and less than 90%) | 5 (Herbicidal rate of 90% or more (almost completely withered)) | 4 (Herbicidal rate of 70% or more and less than 90%) | 0 (Herbicidal rate of 5% or less (almost no effect)) | 0 (Herbicidal rate of 5% or less (almost no effect)) | 0 (Herbicidal rate of 5% or less (almost no effect)) | 0 (Herbicidal rate of 5% or less (almost no effect)) | 0 (Herbicidal rate of 5% or less (almost no effect)) | 0 (Herbicidal rate of 5% or less (almost no effect)) | 0 (Herbicidal rate of 5% or less (almost no effect)) | 1 (Herbicidal rate of 5% or more and less than 20%) | 3 (Herbicidal rate of 40% or more and less than 70%) | 0 (Herbicidal rate of 5% or less (almost no effect)) | 0 (Herbicidal rate of 5% or less (almost no effect)) | 0 (Herbicidal rate of 5% or less (almost no effect)) | herbicidal effect on F: southern crabgrass (evaluation grade 0-5) [16, 29]: 3 (Herbicidal rate of 40% or more and less than 70%); herbicidal effect on G: green foxtail (evaluation grade 0-5) [17, 29]: 4 (Herbicidal rate of 70% or more and less than 90%); herbicidal effect on H: barnyard grass (evaluation grade 0-5) [18, 29]: 3 (Herbicidal rate of 40% or more and less than 70%); herbicidal effect on I: wild oat (evaluation grade 0-5) [19, 29]: 0 (Herbicidal rate of 5% or less (almost no effect)); herbicidal effect on J: blackgrass (evaluation grade 0-5) [20, 29]: 5 (Herbicidal rate of 90% or more (almost completely withered)); herbicidal effect on K: Italian ryegrass (evaluation grade 0-5) [21, 29]: 3 (Herbicidal rate of 40% or more and less than 70%); herbicidal effect on L: windgrass (evaluation grade 0-5) [22, 29]: 5 (Herbicidal rate of 90% or more (almost completely withered)); herbicidal effect on M: velvetleaf (evaluation grade 0-5) [23, 29]: 4 (Herbicidal rate of 70% or more and less than 90%); herbicidal effect on N: redroot pigweed (evaluation grade 0-5) [24, 29]: 3 (Herbicidal rate of 40% or more and less than 70%); herbicidal effect on O: lambsquarters (evaluation grade 0-5) [25, 29]: 4 (Herbicidal rate of 70% or more and less than 90%); herbicidal effect on P: chickweed (evaluation grade 0-5) [26, 29]: 0 (Herbicidal rate of 5% or less (almost no effect)); herbicidal effect on R: persian speedwell (evaluation grade 0-5) [27, 29]: 4 (Herbicidal rate of 70% or more and less than 90%) |
